Experiments:
Experiment in all cases: relative viability (nuclei count vs DMSO), 5 days (fraction); higher = more cells survive
[1] = compound: CN(C)C(=N)NC(=N)N [Metformin] + C[C@@H](Oc1cc(-c2cnn(C3CCNCC3)c2)cnc1N)c1c(Cl)ccc(F)c1Cl [Crizotinib] (partner 1 µM)
Summary of the method: (§1)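 Lung cancer cell lines in 1536-well plates were dosed by pin tool the day after seeding, either with one drug alone or with a fixed anchor-drug dose plus five library-drug doses (not always all listed) in √10 steps. After 5 days, cells were fixed and their nuclei stained in one step (final 0.05% Triton X-100, 1% formaldehyde, 1 ug/ml Hoechst), then counted on 4× images. Relative viability is the nuclei count in treated wells divided by that in vehicle wells. Values are medians of duplicate plates.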

[2] = compound: N#CC1(c2ccc(NC(=O)c3cccnc3NCc3ccncc3)cc2)CCCC1 [Apatinib] + NC(=O)Nc1cc(-c2cccc(F)c2)sc1C(=O)N[C@H]1CCCNC1 [AZD7762] (partner 0.2 µM)
Summary of the method: as §1

[3] = compound: CN(C)C(=N)NC(=N)N [Metformin] + CC(C)C[C@H](NC(=O)[C@H](Cc1ccccc1)NC(=O)c1cnccn1)B(O)O [Bortezomib] (partner 0.002 µM)
Summary of the method: as §1

[4] = compound: N#CC1(c2ccc(NC(=O)c3cccnc3NCc3ccncc3)cc2)CCCC1 [Apatinib] + CC(C)C[C@H](NC(=O)[C@H](Cc1ccccc1)NC(=O)c1cnccn1)B(O)O [Bortezomib] (partner 0.002 µM)
Summary of the method: as §1

Cell Line: SK-MES-1
- relative viability ([1]; first compound 10 µM): 0.884
- relative viability ([1]; first compound 31.62 µM): 0.893
- relative viability ([1]; first compound 100 µM): 0.925
- relative viability ([1]; first compound 316.23 µM): 0.784
- relative viability ([1]; first compound 1000 µM): 0.932

Cell Line: NCI-H2170
- relative viability ([1]; first compound 10 µM): 1.09
- relative viability ([1]; first compound 31.62 µM): 1.14
- relative viability ([1]; first compound 100 µM): 1.19
- relative viability ([1]; first compound 316.23 µM): 1.02
- relative viability ([1]; first compound 1000 µM): 1.19
- relative viability ([2]; first compound 0.08 µM): 0.871
- relative viability ([2]; first compound 0.253 µM): 0.901
- relative viability ([2]; first compound 0.8 µM): 0.719
- relative viability ([2]; first compound 2.53 µM): 0.721
- relative viability ([2]; first compound 8 µM): 0.706

Cell Line: NCI-H1648
- relative viability ([2]; first compound 0.08 µM): 0.937
- relative viability ([2]; first compound 0.253 µM): 0.667
- relative viability ([2]; first compound 0.8 µM): 0.612
- relative viability ([2]; first compound 2.53 µM): 0.567
- relative viability ([2]; first compound 8 µM): 0.601

Cell Line: NCI-H1915
- relative viability ([3]; first compound 31.62 µM): 1.01
- relative viability ([3]; first compound 100 µM): 0.985
- relative viability ([3]; first compound 316.23 µM): 0.961
- relative viability ([3]; first compound 1000 µM): 1.02
- relative viability ([4]; first compound 0.08 µM): 0.953
- relative viability ([4]; first compound 0.253 µM): 0.984
- relative viability ([4]; first compound 0.8 µM): 0.956
- relative viability ([4]; first compound 2.53 µM): 0.812
- relative viability ([4]; first compound 8 µM): 0.924
- relative viability ([1]; first compound 31.62 µM): 0.985
- relative viability ([1]; first compound 100 µM): 0.918
- relative viability ([1]; first compound 316.23 µM): 0.889
- relative viability ([1]; first compound 1000 µM): 0.96
- relative viability ([2]; first compound 0.08 µM): 0.733
- relative viability ([2]; first compound 0.253 µM): 0.685
- relative viability ([2]; first compound 0.8 µM): 0.648
- relative viability ([2]; first compound 2.53 µM): 0.567
- relative viability ([2]; first compound 8 µM): 0.505

Cell Line: HCC-366
- relative viability ([3]; first compound 10 µM): 1.09
- relative viability ([3]; first compound 31.62 µM): 1.11
- relative viability ([3]; first compound 100 µM): 1.01
- relative viability ([3]; first compound 316.23 µM): 1.02
- relative viability ([3]; first compound 1000 µM): 1.12
- relative viability ([4]; first compound 0.08 µM): 1.16
- relative viability ([4]; first compound 0.253 µM): 1.1
- relative viability ([4]; first compound 0.8 µM): 0.948
- relative viability ([4]; first compound 2.53 µM): 0.926
- relative viability ([4]; first compound 8 µM): 1.09
- relative viability ([1]; first compound 10 µM): 0.608
- relative viability ([1]; first compound 31.62 µM): 0.502
- relative viability ([1]; first compound 100 µM): 0.532
- relative viability ([1]; first compound 316.23 µM): 0.398
- relative viability ([1]; first compound 1000 µM): 0.709
- relative viability ([2]; first compound 0.08 µM): 0.283
- relative viability ([2]; first compound 0.253 µM): 0.457
- relative viability ([2]; first compound 0.8 µM): 0.135
- relative viability ([2]; first compound 2.53 µM): 0.128
- relative viability ([2]; first compound 8 µM): 0.0774

Cell Line: HOP-62
- relative viability ([3]; first compound 10 µM): 0.602
- relative viability ([3]; first compound 31.62 µM): 0.745
- relative viability ([3]; first compound 100 µM): 0.209
- relative viability ([3]; first compound 316.23 µM): 0.723
- relative viability ([3]; first compound 1000 µM): 0.816
- relative viability ([4]; first compound 0.08 µM): 1.06
- relative viability ([4]; first compound 0.8 µM): 0.62
- relative viability ([4]; first compound 2.53 µM): 0.672
- relative viability ([4]; first compound 8 µM): 0.738
- relative viability ([1]; first compound 10 µM): 0.917
- relative viability ([1]; first compound 31.62 µM): 0.995
- relative viability ([1]; first compound 100 µM): 1.11
- relative viability ([1]; first compound 316.23 µM): 0.765
- relative viability ([1]; first compound 1000 µM): 0.917
- relative viability ([2]; first compound 0.08 µM): 0.676
- relative viability ([2]; first compound 0.253 µM): 0.536
- relative viability ([2]; first compound 0.8 µM): 0.453
- relative viability ([2]; first compound 2.53 µM): 0.361
- relative viability ([2]; first compound 8 µM): 0.348

Cell Line: RERF-LC-KJ
- relative viability ([3]; first compound 10 µM): 1.14
- relative viability ([3]; first compound 31.62 µM): 1.15
- relative viability ([3]; first compound 100 µM): 1.1
- relative viability ([3]; first compound 316.23 µM): 1.01
- relative viability ([3]; first compound 1000 µM): 0.988
- relative viability ([4]; first compound 0.08 µM): 1.03
- relative viability ([4]; first compound 0.253 µM): 0.99
- relative viability ([4]; first compound 0.8 µM): 1.04
- relative viability ([4]; first compound 2.53 µM): 1.05
- relative viability ([4]; first compound 8 µM): 1.05
- relative viability ([1]; first compound 10 µM): 0.802
- relative viability ([1]; first compound 31.62 µM): 0.739
- relative viability ([1]; first compound 100 µM): 0.718
- relative viability ([1]; first compound 316.23 µM): 0.424
- relative viability ([1]; first compound 1000 µM): 0.74
- relative viability ([2]; first compound 0.08 µM): 0.844
- relative viability ([2]; first compound 0.253 µM): 1.02
- relative viability ([2]; first compound 0.8 µM): 1.04
- relative viability ([2]; first compound 2.53 µM): 0.779
- relative viability ([2]; first compound 8 µM): 0.759

Cell Line: NCI-H2347
- relative viability ([3]; first compound 10 µM): 1.09
- relative viability ([3]; first compound 31.62 µM): 1.1
- relative viability ([3]; first compound 100 µM): 1.23
- relative viability ([3]; first compound 316.23 µM): 1.09
- relative viability ([3]; first compound 1000 µM): 0.641
- relative viability ([4]; first compound 0.08 µM): 0.847
- relative viability ([4]; first compound 0.253 µM): 1.06
- relative viability ([4]; first compound 0.8 µM): 1.13
- relative viability ([4]; first compound 8 µM): 0.891
- relative viability ([1]; first compound 10 µM): 0.545
- relative viability ([1]; first compound 31.62 µM): 0.763
- relative viability ([1]; first compound 100 µM): 0.85
- relative viability ([1]; first compound 316.23 µM): 0.566
- relative viability ([1]; first compound 1000 µM): 0.675
- relative viability ([2]; first compound 0.08 µM): 0.716
- relative viability ([2]; first compound 0.253 µM): 0.791
- relative viability ([2]; first compound 0.8 µM): 0.823
- relative viability ([2]; first compound 2.53 µM): 0.654
- relative viability ([2]; first compound 8 µM): 0.556

Cell Line: PC-14
- relative viability ([3]; first compound 10 µM): 0.818
- relative viability ([3]; first compound 31.62 µM): 0.943
- relative viability ([3]; first compound 100 µM): 0.767
- relative viability ([3]; first compound 316.23 µM): 0.906
- relative viability ([3]; first compound 1000 µM): 0.82
- relative viability ([4]; first compound 0.08 µM): 0.984
- relative viability ([4]; first compound 0.253 µM): 1.01
- relative viability ([4]; first compound 0.8 µM): 0.79
- relative viability ([4]; first compound 2.53 µM): 0.776
- relative viability ([4]; first compound 8 µM): 0.834
- relative viability ([1]; first compound 10 µM): 0.889
- relative viability ([1]; first compound 31.62 µM): 0.912
- relative viability ([1]; first compound 100 µM): 0.896
- relative viability ([1]; first compound 316.23 µM): 0.769
- relative viability ([1]; first compound 1000 µM): 0.894
- relative viability ([2]; first compound 0.08 µM): 0.359
- relative viability ([2]; first compound 0.253 µM): 0.348
- relative viability ([2]; first compound 0.8 µM): 0.258
- relative viability ([2]; first compound 2.53 µM): 0.167
- relative viability ([2]; first compound 8 µM): 0.267

Cell Line: IA-LM
- relative viability ([3]; first compound 31.62 µM): 1.14
- relative viability ([3]; first compound 100 µM): 1.03
- relative viability ([3]; first compound 316.23 µM): 0.893
- relative viability ([3]; first compound 1000 µM): 0.624
- relative viability ([4]; first compound 0.08 µM): 0.952
- relative viability ([4]; first compound 0.253 µM): 0.976
- relative viability ([4]; first compound 0.8 µM): 0.839
- relative viability ([4]; first compound 2.53 µM): 0.536
- relative viability ([4]; first compound 8 µM): 0.183
- relative viability ([1]; first compound 10 µM): 0.76
- relative viability ([1]; first compound 31.62 µM): 0.944
- relative viability ([1]; first compound 316.23 µM): 0.926
- relative viability ([1]; first compound 1000 µM): 0.973

Cell Line: NCI-H727
- relative viability ([3]; first compound 10 µM): 1.05
- relative viability ([3]; first compound 31.62 µM): 0.756
- relative viability ([3]; first compound 100 µM): 1.02
- relative viability ([3]; first compound 316.23 µM): 0.774
- relative viability ([3]; first compound 1000 µM): 0.934
- relative viability ([4]; first compound 0.08 µM): 0.684
- relative viability ([4]; first compound 0.253 µM): 0.706
- relative viability ([4]; first compound 0.8 µM): 0.62
- relative viability ([4]; first compound 2.53 µM): 0.599
- relative viability ([4]; first compound 8 µM): 0.716
- relative viability ([1]; first compound 10 µM): 0.886
- relative viability ([1]; first compound 31.62 µM): 0.886
- relative viability ([1]; first compound 100 µM): 1.04
- relative viability ([1]; first compound 316.23 µM): 0.811
- relative viability ([1]; first compound 1000 µM): 0.993
- relative viability ([2]; first compound 0.08 µM): 0.487
- relative viability ([2]; first compound 0.8 µM): 0.548
- relative viability ([2]; first compound 2.53 µM): 0.456
- relative viability ([2]; first compound 8 µM): 0.49
